Assay results reported in US4644063A, “1,3-oxazolidine-2-one derivatives” (Nippon Chemiphar Co., Ltd., priority 1984, dated 1987).
Structures can show the parent of a compound that is named as a salt.

Assays:
[1] = tested on: Anemic Decerebrate Rigidity Sample (EMG, M. triceps brachii); experiment: Effects on Anemic Decerebrate Rigidity Sample (suppression of EMG of forelimb muscle); format: in vivo, Wistar male rats; conditions: iv, 10 min; rat, 3 mg/kg in physiological saline through femoral vein, 10 minutes after administration; read-out: Suppression rate
[2] = tested on: Glutamic Acid at Neuromuscular Junctions of Crayfish (opener muscles of the first walking legs); experiment: Blocking effects against Glutamic Acid at Neuromuscular Junctions of Crayfish; conditions: 5-minute pretreatment, L-glutamic acid 10^-4 M
[3] = Acute Toxicity (up-and-down method); conditions: mouse, in vivo, iv (caudal vein), ddN male mice
Experimental: Using ddN male mice, the acute toxicity level of each test compound was determined in accordance with an up-and-down method. Some of the test compounds used were dissolved in physiological saline and administered through the caudal vein.

[4] = tested on: neuraxial muscle relaxing effect; experiment: Neuraxial muscle relaxing effect, experiment conducted by the inventors; format: in vivo
[5] = reported by Nikolova; cited from earlier work
glutamic acid = conditions: in higher animals; cited from earlier work
higher animals = conditions: Oleny et al; cited from earlier work
[6] = test compound 2 × 10^-4 M, 200 µM
[7] = test compound 2 × 10^-5 M, 20 µM

SMILES | inhibition in vivo at 3 mg/kg [1] [%] | LD50 [3] [mg/kg] | also measured
C[C@@H]1[C@H](c2ccccc2)OC(=O)N1CCN1CCCCC1.Cl (racemic) [Comparative compound 2, (4RS,5SR)-4-methyl-5-phenyl-3-(2-piperidinoethyl)-1,3-oxazolidine-2-one hydrochloride, reference compound] | 3.6 |  | Blocking rate against glutamic acid [2, 6]: 0%
C[C@@H]1[C@@H](c2ccccc2)OC(=O)N1CCN1CCCCC1 (racemic) [Comparative compound 3, (4RS,5RS)-4-methyl-5-phenyl-3-(2-piperidinoethyl)-1,3-oxazolidine-2-one hydrochloride, reference compound] | 2.2 |  | 
C[C@@H]1[C@H](c2ccccc2)OC(=O)N1CCN1CCCC1.Cl (racemic) [Comparative compound 4, (4RS,5SR)-4-methyl-5-phenyl-3-(2-pyrrolidinoethyl)-1,3-oxazolidine-2-one hydrochloride, reference compound] | 1 |  | Blocking rate against glutamic acid [2, 6]: 45%
C[C@@H]1[C@@H](c2ccccc2)OC(=O)N1CCN1CCCC1 (racemic) [Comparative compound 5, (4RS,5RS)-4-methyl-5-phenyl-3-(2-pyrrolidinoethyl)-1,3-oxazolidine-2-one hydrochloride, reference compound] | 3 |  | 
CC(C)[C@@H]1[C@H](c2ccccc2)OC(=O)N1CCCN1CCCCC1 (racemic) [Compound 1, (4RS,5SR)-4-(1-methylethyl)-5-phenyl-3-(3-piperidinopropyl)-1,3-oxazolidine-2-one] | 12 | 29.7 | 
CC(C)[C@@H]1[C@@H](c2ccccc2)OC(=O)N1CCCN1CCCCC1 (racemic) [Compound 2, (4RS,5RS)-4-(1-methylethyl)-5-phenyl-3-(3-piperidinopropyl)-1,3-oxazolidine-2-one] | 19.8 | 18.8 | 
CC(C)C[C@@H]1[C@H](c2ccccc2)OC(=O)N1CCCN1CCCCC1 (racemic) [Compound 3, (4RS,5SR)-4-(2-methylpropyl)-5-phenyl-3-(3-piperidinopropyl)-1,3-oxazolidine-2-one] | 18 | 55.5 | Blocking rate against glutamic acid [2, 6]: 89%
CC(C)C[C@@H]1[C@@H](c2ccccc2)OC(=O)N1CCCN1CCCCC1 (racemic) [Compound 4, (4RS,5RS)-4-(2-methylpropyl)-5-phenyl-3-(3-piperidinopropyl)-1,3-oxazolidine-2-one] | 21.2 | 29.9 | Blocking rate against glutamic acid [2, 6]: 88%
CC(C)[C@@H]1[C@@H](c2ccccc2)OC(=O)N1CCCN1CCCC1 (racemic) [Compound 10, (4RS, 5RS)-4-(1-methylethyl)-5-phenyl-3-(3-pyrrolidinopropyl)-1,3-oxazolidine-2-one] | 18.7 | 54.6 | 
CC(C)C[C@@H]1[C@H](c2ccccc2)OC(=O)N1CCCN1CCCC1 (racemic) [Compound 13, (4RS,5SR)-4-(2-methylpropyl)-5-phenyl-3-(3-pyrrolidinopropyl)-1,3-oxazolidine-2-one] |  | 75.1 | Blocking rate against glutamic acid [2, 6]: 80%
CC(C)C[C@@H]1[C@@H](c2ccccc2)OC(=O)N1CCCN1CCCC1 (racemic) [Compound 14, (4RS,5RS)-4-(2-methylpropyl)-5-phenyl-3-(3-pyrrolidinopropyl)-1,3-oxazolidine-2-one] | 10.2 | 53.2 | 
Cc1ccc([C@@H]2OC(=O)N(CCCN3CCCCC3)[C@@H]2CC(C)C)cc1 (racemic) [Compound 25, (4RS,5SR)-5-(4-methylphenyl)-4-(2-methylpropyl)-3-(3-piperidinopropyl)-1,3-oxazolidine-2-one] | 10.9 | 34.9 | 
COc1ccc([C@@H]2OC(=O)N(CCCN3CCCCC3)[C@@H]2CC(C)C)cc1 (racemic) [Compound 27, (4RS,5SR)-5-(4-methoxyphenyl)-4-(2-methylpropyl)-3-(3-piperidinopropyl)-1,3-oxazolidine-2-one] | 8.4 | 39.8 | 
CC(C)C[C@@H]1[C@H](c2ccc(F)cc2)OC(=O)N1CCCN1CCCCC1 (racemic) [Compound 29, (4RS,5SR)-5-(4-fluorophenyl)-4-(2-methylpropyl)-3-(3-piperidinopropyl)-1,3-oxazolidine-2-one] | 9.9 | 66.1 | 
CCCC[C@@H]1[C@@H](c2ccccc2)OC(=O)N1CCCN1CCCCC1 (racemic) [Compound 35, (4RS,5RS)-4-butyl-5-phenyl-3-(3-piperidinopropyl)-1,3-oxazolidine-2-one] |  |  | Blocking rate against glutamic acid [2, 7]: 68%
CCCC[C@@H]1[C@H](c2ccccc2)OC(=O)N1CCCN1CCCCC1 (racemic) [Compound 36, (4RS,5SR)-4-butyl-5-phenyl-3-(3-piperidinopropyl)-1,3-oxazolidine-2-one] |  |  | Blocking rate against glutamic acid [2, 7]: 53%
CCCCC[C@@H]1[C@@H](c2ccccc2)OC(=O)N1CCCN1CCCCC1 (racemic) [Compound 37, (4RS,5RS)-4-pentyl-5-phenyl-3-(3-piperidinopropyl)-1,3-oxazolidine-2-one] |  |  | Blocking rate against glutamic acid [2, 7]: 58%
CC(C)CC[C@@H]1[C@H](c2ccccc2)OC(=O)N1CCCN1CCCCC1 (racemic) [Compound 40, (4RS,5SR)-4-(3-methylbutyl)-5-phenyl-3-(3-piperidinopropyl)-1,3-oxazolidine-2-one] |  | 53.6 | Blocking rate against glutamic acid [2, 7]: 61%
CCCCCC[C@@H]1[C@@H](c2ccccc2)OC(=O)N1CCCN1CCCCC1 (racemic) [Compound 41, (4RS,5RS)-4-hexyl-5-phenyl-3-(3-piperidinopropyl)-1,3-oxazolidine-2-one] |  |  | Blocking rate against glutamic acid [2, 7]: 69%
CC1C(c2ccccc2)OC(=O)N1CCN1CCCCC1 (stereo not shown) [4-methyl-5-phenyl-3-(2-piperidinoethyl)-1,3-oxazolidine-2-one] |  |  | neuraxial muscle relaxing effect [4]: extremely weak; analgesic effect [5]: has an analgesic effect; anti-convulsion effect [5]: exerts no anti-convulsion; neuraxial muscle relaxing effect [5]: exerts no anti-convulsion nor neuraxial muscle relaxing effects
Cc1ccc(C(=O)C(C)CN2CCCCC2)cc1 (stereo not shown) [Comparative compound 1, toluperisone hydrochloride, reference compound] | 4.8 |  | 
CC(C)C[C@H]1[C@@H](c2ccccc2)OC(=O)N1CCCN1CCCCC1 [Compound 5, (4S,5R)-4-(2-methylpropyl)-5-phenyl-3-(3-piperidinopropyl)-1,3-oxazolidine-2-one] | 37.7 | 69 | Blocking rate against glutamic acid [2, 6]: 91%
CC(C)C[C@@H]1[C@H](c2ccccc2)OC(=O)N1CCCN1CCCCC1 [Compound 6, (4R,5S)-4-(2-methylpropyl)-5-phenyl-3-(3-piperidinopropyl)-1,3-oxazolidine-2-one] | 14.9 |  | 
CC(C)C[C@H]1[C@H](c2ccccc2)OC(=O)N1CCCN1CCCCC1 [Compound 7, (4S,5S)-4-(2-methylpropyl)-5-phenyl-3-(3-piperidinopropyl)-1,3-oxazolidine-2-one] | 64.8 | 30.4 | Blocking rate against glutamic acid [2, 6]: 92%
CC(C)C[C@@H]1[C@@H](c2ccccc2)OC(=O)N1CCCN1CCCCC1 [Compound 8, (4R,5R)-4-(2-methylpropyl)-5-phenyl-3-(3-piperidinopropyl)-1,3-oxazolidine-2-one] | 12 |  | 
CC(C)C[C@H]1[C@@H](c2ccccc2)OC(=O)N1CCCN1CCCCCC1 [Compound 17, (4S,5R)-4-(2-methylpropyl)-3-[3-(perhydroazepine-1-yl-)propyl]-5-phenyl-1,3-oxazolidine-2-one] | 93 | 40.1 | Blocking rate against glutamic acid [2, 6]: 90%
C/C(=C/C=C/[C@@H](C)C(=O)O)[C@H]1CN[C@H](C(=O)O)[C@H]1CC(=O)O [domoic acid] |  |  | agonist for glutamic acid (glutamic acid): extremely strong agonist; effects induced from administration (higher animals): dystropy, rigidity, tremor, convulsion and the like are induced
N[C@H](C(=O)O)c1cc(=O)[nH]o1 [ibotenic acid] |  |  | agonist for glutamic acid (glutamic acid): extremely strong agonist; effects induced from administration (higher animals): dystropy, rigidity, tremor, convulsion and the like are induced
C=C(C)[C@H]1CN[C@H](C(=O)O)[C@H]1CC(=O)O [kainic acid] |  |  | agonist for glutamic acid (glutamic acid): extremely strong agonist; effects induced from administration (higher animals): dystropy, rigidity, tremor, convulsion and the like are induced
N[C@@H](Cn1oc(=O)[nH]c1=O)C(=O)O [quisqualic acid] |  |  | agonist for glutamic acid (glutamic acid): extremely strong agonist; effects induced from administration (higher animals): dystropy, rigidity, tremor, convulsion and the like are induced
